Experimental findings from patent publication US20260248763A1 (BIO GENUINE (SHANGHAI) BIOTECH CO., LTD, priority 2023, published 2026) are described below.

The target in one assay is T1, OTR (Homo sapiens, UniProt P30559).
T1 construct: expressed in transfected cells; host or cells: OTR/HEK293 stably transfected cell line
T1 sequence (P30559 1-389): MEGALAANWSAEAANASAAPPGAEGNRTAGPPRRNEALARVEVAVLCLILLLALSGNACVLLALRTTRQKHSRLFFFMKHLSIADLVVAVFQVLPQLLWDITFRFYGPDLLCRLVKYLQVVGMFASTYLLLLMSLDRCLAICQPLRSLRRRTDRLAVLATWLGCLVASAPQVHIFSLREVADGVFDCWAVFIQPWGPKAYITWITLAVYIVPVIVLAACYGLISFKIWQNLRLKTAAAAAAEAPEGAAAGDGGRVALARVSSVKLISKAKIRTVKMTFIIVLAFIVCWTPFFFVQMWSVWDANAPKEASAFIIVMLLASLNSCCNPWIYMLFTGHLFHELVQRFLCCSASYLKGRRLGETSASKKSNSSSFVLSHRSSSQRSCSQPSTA
The assay can be described thus: Ca2+ mobilization in cells stably expressing OTR (FLIPR, antagonist mode). It is filed as cell-based. As to conditions: OTR/HEK293 stably transfected cell line. The procedure, abridged: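 Antagonist mode: test compounds in 10-point 3-fold series were added on FLIPR to Fluo-4-loaded HEK293 cells stably expressing OTR, followed by reference agonist at its EC80, determined beforehand. The Max-Min calcium fluorescence response was fitted in Prism.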

In a further assay the target is T2, V1aR (Homo sapiens, UniProt P37288).
T2 construct: expressed in transfected cells; host or cells: V1a-CHO stably transfected cell line
T2 sequence (P37288 whole entry, species assumed): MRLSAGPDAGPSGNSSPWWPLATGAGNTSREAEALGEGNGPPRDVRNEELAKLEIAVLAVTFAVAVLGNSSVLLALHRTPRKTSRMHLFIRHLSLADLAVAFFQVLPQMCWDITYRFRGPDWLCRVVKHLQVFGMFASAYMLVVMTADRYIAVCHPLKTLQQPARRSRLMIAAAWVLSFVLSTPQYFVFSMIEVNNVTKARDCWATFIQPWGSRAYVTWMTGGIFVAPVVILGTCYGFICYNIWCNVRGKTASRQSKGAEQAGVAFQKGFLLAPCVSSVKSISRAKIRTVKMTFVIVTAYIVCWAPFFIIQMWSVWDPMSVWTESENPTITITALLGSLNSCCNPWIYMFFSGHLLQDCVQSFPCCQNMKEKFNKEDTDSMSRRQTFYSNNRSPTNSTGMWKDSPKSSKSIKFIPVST
The assay can be described thus: Ca2+ mobilization in cells stably expressing V1aR (FLIPR, antagonist mode). The assay is classed as cell-based. Particulars: V1a-CHO stably transfected cell line. An excerpt: Test Example 2. Determination of the Effect of the Compound of the Present Disclosure on Ca^2+ Mobilization in Cells Stably Expressing V1aR
To measure the antagonistic effect of the compound of the present disclosure on V1aR activity expressed in the V1a-CHO stably transfected cell line.
• F-12 (Hyclone, SH30026.01) • FLIPR CALCIUM 6 ASSAY KIT (Molecul Device, R8191) • Fetal Bovine Serum (FBS) (AusGeneX, FBS500-S) • Hygromycin B (Solarbio, H8080-1g) • DMSO (Sigma, D4540) • HBSS (Gibco 14025-092) • Probenecid (MCE, HY—B0545) • 0.36 mL 96 Round V-bottom Deep Well Plates for Laboratory (Biaosen P-0.36-BSA-96) • 384-well conical bottom polypropylene plate (Nunc, 264573) • Corning® 384-well Flat Clear Bottom Black Polystyrene TC-treated Microplates (Corning 3764)
• Biological safety cabinet (ECSO, AC2-6S1-TC) • Carbon dioxide cell incubator (ECSO, CCI-170B-8) • Inverted microscope (Olympus, CKX53) • Microplate low-speed centrifuge (Xiangzhi, TD5B) • FLIPR® Penta (Molecul Device, 5.0)
• 1. Cell plating: V1a-CHO cells were digested and harvested, resuspended and counted, and then inoculated into a 384-well cell plate at a density of: 1.2×10^4 cells/25 μL/well. The cell plate was then incubated in an incubator at 37° C. with 5% CO2 for about 16-20 h. • 2. The next day: after preparing Assay Buffer, 20× Component A was thawed to room temperature, diluted with Assay buffer to 1× loading buffer, and placed at room temperature for later use. • 3. The medium was removed from the cell plate, and 40 μL of 1× loading buffer was quickly added to each well. After centrifugation, the cell plate was incubated at 37° C. in the dark for 120 minutes. • 4. The serially diluted positive compound, serially diluted test compound, and agonist working solution were formulated. After mixing the serially diluted positive compound/serially diluted test compound with the agonist at a 1:1 ratio, 20 μL per well was transferred to a 384-well compound source plate. • 5. The cell plate, agonist source plate, and pipette tips were placed into their respective positions in the FLIPR instrument. Using FLIPR Tetra, 10 μL of the diluted agonist from Step 4 was added to each test well, and the data were collected at a wavelength of 515 nm-575 nm. • 6. The signal values were plotted against the compound concentrations, and the curve fitting and IC50 calculation were performed using the nonlinear regression method of GraphPad Prism software.
In general terms: Calcium flux is commonly read through the fluorescence of an indicator in the cells.

Take `CO/N=C1/C[C@@H](CO)N(C(=O)c2ccc(-c3cccc(C)c3C)cc2)C1` [Example C0036, (S,Z)-(2′,3′-Dimethyl-[1,1′-biphenyl]-4-yl)(2-(hydroxymethyl)-4-(methoxyimino)pyrrolidin-1-yl)methanone]: the IC50 is 32.1 nM on OTR and 790 nM against V1aR.
As for `CO/N=C1/C[C@@H](CO)N(C(=O)c2ccc(-c3cccc(C)c3C)cc2OC)C1` [Example C0038, (S,Z)-(2-(Hydroxymethyl)-4-(methoxyimino)pyrrolidin-1-yl)(3-methoxy-2′,3′-dimethyl-[1,1′-biphenyl]-4-yl)methanone], the figures for the IC50 against OTR and on V1aR were 13.5 nM and 1370 nM, respectively.
On to `CO/N=C1/C[C@@H](CO)N(C(=O)c2cnc(-c3cccc(Cl)c3C)cn2)C1` [Example C0041, (S, Z)-(5-(3-Chloro-2-methylphenyl)pyrazin-2-yl)(2-(hydroxymethyl)-4-(methoxyimino)pyrrolidin-1-yl)methanone], for which the IC50 stood at 49.3 nM at OTR and 1750 nM at V1aR.
As to `CO/N=C1/C[C@@H](CO)N(C(=O)c2ccc(-c3ccccc3C)cc2C)C1` [Example C0044, (S, Z)-(2′,3-Dimethyl-[1,1′-biphenyl]-4-yl)(2-(hydroxymethyl)-4-(methoxyimino)pyrrolidin-1-yl)methanone], the results for the IC50 against OTR and against V1aR were 78.5 nM and 5510 nM, respectively.
The like results for `CO/N=C1/C[C@@H](CO)N(C(=O)c2ccc(-c3cccc(C)c3C)cc2C)C1` [Example C0045, (S, Z)-(2-(Hydroxymethyl)-4-(methoxyimino)pyrrolidin-1-yl)(3-methyl-2′,3′-dimethyl-[1,1′-biphenyl]-4-yl)methanone] were, in that order, 16 nM and 3500 nM.
Take `CO/N=C1/C[C@@H](CO)N(C(=O)c2ccc(-c3ccccc3C)c(C)c2)C1` [Example C0046, (S, Z)-(2′,2-Dimethyl-[1,1′-biphenyl]-4-yl)(2-(hydroxymethyl)-4-(methoxyimino)pyrrolidin-1-yl)methanone]: the results for the IC50 on OTR and at V1aR were 22.1 nM and 1850 nM, respectively.
Take `CO/N=C1/C[C@@H](CO)N(C(=O)c2ccc(-c3cccc(C)c3C)c(C)c2)C1` [Example C0047, (S, Z)-(2,2′,3′-Trimethyl-[1,1′-biphenyl]-4-yl)(2-(hydroxymethyl)-4-(methoxyimino)pyrrolidin-1-yl)methanone]: the values for the IC50 at OTR and on V1aR were 11.2 nM and 2400 nM, respectively.
Consider `CO/N=C1/C[C@@H](CO)N(C(=O)c2ccc(-c3cccc(Cl)c3C)cc2)C1` [Example C0056, (S, Z)-(3′-Chloro-2′-methyl-[1,1′-biphenyl]-4-yl)(2-(hydroxymethyl)-4-(methoxyimino)pyrrolidin-1-yl)methanone], for which the values for the IC50 at OTR and on V1aR were 10.2 nM and 2760 nM, respectively.
As to `CO/N=C1/C[C@@H](CO)N(C(=O)c2ccc(-c3cccc(C(F)(F)F)c3C)cc2)C1` [Example C0060, (S,Z)-(2-(Hydroxymethyl)-4-(methoxyimino)pyrrolidin-1-yl)(2′-methyl-3′-(trifluoromethyl)-[1,1′-biphenyl]-4-yl)methanone], the IC50 against OTR was 17.9 nM; at V1aR, 3210 nM.
Consider `CO/N=C1/C[C@@H](CO)N(C(=O)c2ccc(-c3cccc(C)c3C)c3c2OCO3)C1` [Example C0062, (S, Z)-(7-(2,3-Dimethylphenyl)benzo[d][1,3]dioxol-4-yl)(2-(hydroxymethyl)-4-(methoxyimino)pyrrolidin-1-yl)methanone], for which the IC50 against OTR worked out at 10.6 nM; against V1aR, 2740 nM.
In the case of `CO/N=C1/C[C@@H](CO)N(C(=O)c2ccc(-c3cccc(C)c3C)c(OC)c2)C1` [Example C0064, (S, Z)-(2-(Hydroxymethyl)-4-(methoxyimino)pyrrolidin-1-yl)(2-methoxy-2′,3′-dimethyl-[1,1′-biphenyl]-4-yl)methanone], the concentration for half-maximal inhibition (IC50) on OTR is 11 nM; against V1aR it was 584 nM.
As for `CO/N=C1/C[C@@H](CO)N(C(=O)c2ccc(-c3cccc(OC)c3C)cc2)C1` [Example C0066, (S, Z)-(2-(Hydroxymethyl)-4-(methoxyimino)pyrrolidin-1-yl)(3′-methoxy-2′-methyl-[1,1′-biphenyl]-4-yl)methanone], the IC50 on OTR turned out to be 72.9 nM; at V1aR, 2160 nM.
`CO/N=C1/C[C@@H](CO)N(C(=O)c2ccc(-c3cccc(C)c3C)c(OC)n2)C1` [Example C0073, (S, Z)-(5-(2,3-Dimethylphenyl)-6-methoxypyridin-2-yl)(2-(hydroxymethyl)-4-(methoxyimino)pyrrolidin-1-yl)methanone]: the IC50 against OTR was found to be 42.2 nM; against V1aR, 5030 nM.
For the compound `CO/N=C1/C[C@@H](CO)N(C(=O)c2ccc(-c3ccc(C#N)c(C)c3C)cc2)C1` [Example C0075, (S, Z)-4′-(2-(Hydroxymethyl)-4-(methoxyimino)pyrrolidine-1-carbonyl)-2,3-dimethyl-[1,1′-biphenyl]-4-carbonitrile], the IC50 is 46.8 nM against OTR and 20000 nM against V1aR.
For `CO/N=C1/C[C@@H](CO)N(C(=O)c2ccc(-c3cccc(C(F)F)c3C)cc2)C1` [Example C0079, (S, Z)-(3′-(Difluoromethyl)-2′-methyl-[1,1′-biphenyl]-4-yl)(2-(hydroxymethyl)-4-(methoxyimino)pyrrolidin-1-yl)methanone] the same measures were 27.7 nM and 930 nM.
As for `CO/N=C1/C[C@@H](CO)N(C(=O)c2ccc(-c3cccc(C)c3C)c3c2CCC3)C1` [Example C0083, (S,Z)-(7-(2,3-Dimethylphenyl)-2,3-dihydro-1H-inden-4-yl)(2-(hydroxymethyl)-4-(methoxyimino)pyrrolidin-1-yl)methanone], the IC50 on OTR was 11.1 nM; against V1aR it was 2920 nM.
Turning to `CO/N=C1/C[C@@H](CO)N(C(=O)c2ccc(-c3cccc(C(F)F)c3C)c3c2OCO3)C1` [Example C0118, (S, Z)-(7-(3-(Difluoromethyl)-2-methylphenyl)benzo[d][1,3]dioxolan-4-yl)(2-(hydroxymethyl)-4-(methoxyimino)pyrrolidin-1-yl)methanone], the IC50 at OTR stood at 32.9 nM; against V1aR, 1140 nM.
As to `CO/N=C1/C[C@@H](CO)N(C(=O)c2ccc(-c3ccc(F)c(C#N)c3C)c3c2OCO3)C1` [Example C0123, (S, Z)-6-Fluoro-3-(7-(2-(hydroxymethyl)-4-(methoxyimino)pyrrolidine-1-carbonyl)benzo[d][1,3]dioxolan-4-yl)-2-methylbenzonitrile], the IC50 on OTR turned out to be 16.1 nM; against V1aR, 9060 nM.
`CO/N=C1\C[C@@H](CO)N(C(=O)c2ccc(-c3cccc(C#N)c3C)c3c2OCCO3)C1` [Example C0132, (S,E)-3-(8-(2-(Hydroxymethyl)-4-(methoxyimino)pyrrolidine-1-carbonyl)-2,3-dihydrobenzo[b][1,4]dioxin-5-yl)-2-methylbenzonitrile]: the IC50 was determined as 11.4 nM against OTR and 8370 nM on V1aR.
`CO/N=C1/C[C@@H](CO)N(C(=O)c2ccc(-c3cccc(C#N)c3C)c3c2OCCO3)C1` [Example C0133, (S,Z)-3-(8-(2-(Hydroxymethyl)-4-(methoxyimino)pyrrolidine-1-carbonyl)-2,3-dihydrobenzo[b][1,4]dioxin-5-yl)-2-methylbenzonitrile]: the IC50 against OTR stood at 8.19 nM; against V1aR it was 2350 nM.
Consider `CO/N=C1/C[C@@H](CO)N(C(=O)c2ccc(-c3c(F)ccc(C#N)c3C)c3c2OCCO3)C1` [Example C0150, 4-Fluoro-3-(8-((S,Z)-2-(hydroxymethyl)-4-(methoxyimino)pyrrolidine-1-carbonyl)-2,3-dihydrobenzo[b][1,4]dioxin-5-yl)-2-methylbenzonitrile], for which the figures for the IC50 at OTR and against V1aR were 7.07 nM and 4050 nM, respectively.

By IC50 is commonly meant the point on the concentration scale where inhibition reaches its midpoint. A higher IC50 goes with weaker potency.
